Entries after “also recorded” stand apart in the source; their conditions may differ.
How the values were obtained:
[1] = system: luteinising hormone and follicle-stimulating hormone genes in the pituitary gland; assay: Gene expression (HGU133A) in the pituitary gland of ovariectomized monkeys treated with estradiol, tamoxifen or raloxifene; format: in vivo, cynomolgus monkeys (Macaca fascicularis); conditions: OVX monkeys
Description: Female sexually mature cynomolgus monkeys (Macaca fascicularis obtained from R. C. Hartelust B V, Tilburg, the Netherlands) approximately 48 months old were subjected to surgery (ovarectomy [OVX] or sham) 10 weeks prior to treatment and were treated for parasitic arthropods and helminthes, subjected to a tuberculin testing, and acclimated to the treatment facility for at least 14 days before beginning treatment.
Surgical Procedures. The ovariectomized cynomolgus monkey (Macaca fascicularis), which has been validated as a useful model predictive of outcomes in human clinical trials of estrogen and SERMs (Cline J M et al., Toxicol Pathol. 29:84-90 (2001)), was used as a model of estrogen deficiency. Animals were ovariectomized approximately 10 weeks before the first day of treatment. The ovaries were removed following anesthesia with a combined intramuscular injection of xylazine (Rompun®: 0.4 mL/animal, Bayer Pharma Division Sante Animale, Puteaux, France) and ketamine hydrochloride (Imalgéne®: 0.6 mL/kg, Mérial, Lyon, France). Sham-operated animals were subjected to the same surgical procedure, except for the removal of ovaries.
Ovariectomized and sham-operated animals were divided into groups of 4 and treated as outlined below.
Gene expression was determined in the pituitary and uterus at the end of drug therapy. Tissues to be analyzed (pituitary glands and uterus) were excised, snap frozen in liquid nitrogen, and stored at −80° C. until RNA extraction was performed.
Total RNA was obtained by acid guanidinium isothiocyanate-phenol-chloroform extraction (Trizol; Invitrogen Life Technologies, San Diego, Calif., USA) and purified on an affinity resin column (RNeasy; Qiagen, Hilden, Germany) according to manufacturer instructions. […] Lockhart D J, Dong H, Byrne M C, et al. Nat. Biotechnol. 1996; 14:1675-1680.
Previous studies have proven the validity of cross-species DNA chip analysis (Hacia J G et al. Nat Genet. 18:155-158 (1998)), therefore, the human gene expression probe arrays HGU133A (Affymetrix, Santa Clara, Calif., USA) containing 22,283 probe sets interrogating primarily annotated human genes were used. One GeneChip was used per tissue, per animal. The resulting image files (.dat files) were processed using the Microarray Analysis Suite 5 (MAS5) software (Affymetrix, Inc.). Tab-delimited files were obtained containing data regarding signal intensity (Signal) and categorical expression level measurement (Absolute Call).

[2] = system: uterine gene expression; assay: Gene expression profiling (HGU133A) in the uterus of ovariectomized monkeys treated with estradiol, tamoxifen or raloxifene; format: in vivo, cynomolgus monkeys (Macaca fascicularis)
[3] = system: gene expression in organs; assay: Blind monkey trial of three peptides: gene expression profiling of organs on Affymetrix U95 chips; format: in vivo, cynomolgus monkeys; conditions: 100 μg/animal/day sc, two weeks
[4] = compared with untreated OVX controls

Compound: C[C@]12CC[C@@H]3c4ccc(O)cc4CC[C@H]3[C@@H]1CC[C@@H]2O [estradiol]
- Decrease of FSH transcripts in the pituitary gland [1]: 73.4 fold
- Decrease of LH transcripts in the pituitary gland [1]: 16.4 fold
- Uterine expression increase: transport genes [2]: 2-7 fold
- Uterine expression downregulation: thioredoxin interacting protein ([2]; compared with OVX control): 3 fold
- Uterine expression increase: Collagen type 1 alpha 2 ([2]; compared with OVX controls): 13.2 fold
- Uterine expression increase: cell cycle proteins (CDC28 protein kinase regulatory subunit 2) ([2]; compared with OVX controls): up to 4 fold
- Uterine expression increase: collagen type 1 alpha1 ([2]; compared with OVX controls): 6.6 fold
- Uterine expression increase: collagen type III alpha 1 ([2]; compared with OVX controls): 6.8 fold
- Uterine expression increase: collagen type IV alpha 1 ([2]; compared with OVX controls): 4.3 fold
- Uterine expression increase: cysteine-rich angiogenic inducer 61 ([2]; compared with OVX controls): 3.5 fold
- Uterine expression increase: insulin-like GF binding protein 2 (36 kDa) ([2]; compared with OVX controls): 7.1 fold
- Uterine expression increase: insulin-like growth factor binding protein 5 ([2]; compared with OVX controls): 5.2 fold
- Uterine expression increase: latent transforming growth factor beta binding protein 1 ([2]; compared with OVX controls): 3.6 fold
- Uterine expression increase: Dishevelled associated activator of morphogenesis 1 [2, 4]: 3.1 fold
- Uterine expression increase: integrin (beta 5) [2, 4]: 1.7 fold
- Uterine expression increase: progesterone receptor [2, 4]: 9.8 fold
- Uterine expression increase: secreted frizzled-related protein 1 [2, 4]: 7.1 fold
- Uterine expression increase: secreted frizzled-related protein 4 [2, 4]: 4.2 fold
- Uterine expression increase: wingless-type MMTV integration site (family, member 2B; wnt2B) [2, 4]: 2.6 fold

Compound: Peptide 3: leukemia inhibitory factor
- Conclusions of the in vivo Profiling by the Data Mining Team: Function/Pathway [3]: Ca^++ bone metabolism; also recorded: Inflammation; also recorded: Immunosuppression; also recorded: Vascular differentiation
- Findings by the Data Mining Team: Skeletal muscle (gene with direction) [3]: JunB and haptoglobin and phospholipase A2 typeIIA+

Compound: O=C(c1ccc(OCCN2CCCCC2)cc1)c1c(-c2ccc(O)cc2)sc2cc(O)ccc12 [Ralolxifene]
- Fold change relative to SHAM control: Cadherin 11, type 2, OB-cadherin (osteoblast) ([2]; uterus, OVX monkeys): 0.8 fold
- Fold change relative to SHAM control: Calcium channel, voltage-dependent, beta 2 subunit ([2]; uterus, OVX monkeys): 1.5 fold
- Fold change relative to SHAM control: Catenin (cadherin-associated protein), alpha-like 1 ([2]; uterus, OVX monkeys): 1.5 fold
- Fold change relative to SHAM control: Dishevelled associated activator of morphogenesis 1 ([2]; uterus, OVX monkeys): 0.6 fold
- Fold change relative to SHAM control: Four and a half LIM domains 2 ([2]; uterus, OVX monkeys): 0.6 fold
- Fold change relative to SHAM control: Integrin, beta 5 ([2]; uterus, OVX monkeys): 0.9 fold
- Fold change relative to SHAM control: LDL receptor adaptor protein ([2]; uterus, OVX monkeys): 1.4 fold
- Fold change relative to SHAM control: LIM and senescent cell antigen-like domains 1 ([2]; uterus, OVX monkeys): 0.8 fold
- Fold change relative to SHAM control: Mitogen-activated protein kinase kinase kinase kinase 4 ([2]; uterus, OVX monkeys): 1.2 fold
- Fold change relative to SHAM control: Phosphatase and tensin homolog (mutated in multiple advanced cancers 1) ([2]; uterus, OVX monkeys): 0.7 fold
- Fold change relative to SHAM control: Phospholipid transfer protein ([2]; uterus, OVX monkeys): 0.7 fold
- Fold change relative to SHAM control: Progesterone receptor ([2]; uterus, OVX monkeys): 0.6 fold
- Fold change relative to SHAM control: Protein tyrosine kinase 9 ([2]; uterus, OVX monkeys): 0.8 fold
- Fold change relative to SHAM control: Secreted frizzled-related protein 1 ([2]; uterus, OVX monkeys): 0.8 fold
- Fold change relative to SHAM control: Secreted frizzled-related protein 4 ([2]; uterus, OVX monkeys): 0.4 fold
- Fold change relative to SHAM control: Wingless-type MMTV integration site family, member 2B ([2]; uterus, OVX monkeys): 0.8 fold
- Fold change relative to SHAM control: Wingless-type MMTV integration site family, member 16 ([2]; uterus, OVX monkeys): 0.8 fold
- Fold change relative to SHAM control: Insulin receptor ([2]; uterus, OVX monkeys, Table 46): 1.4 fold
